Source: PubChem BioAssay (NCI)
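The compound was tested at five concentrations on cells cultured in 96-well plates, with a 48-hour exposure period. TGI: concentration producing complete growth inhibition.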

What was measured:
Assay in all cases: NCI tumour cell line growth inhibition, 48 h
[1] = test system: SF-539 CNS
[2] = test system: SNB-75 CNS
[3] = test system: SN12C renal
[4] = test system: HCC-2998 colon
[5] = test system: SK-MEL-5 melanoma
[6] = test system: U251 CNS
[7] = test system: UACC-257 melanoma
[8] = test system: NCI/ADR-RES ovarian
[9] = test system: K-562 leukemia
[10] = test system: HL-60(TB) leukemia
[11] = test system: HCT-15 colon
[12] = test system: UACC-62 melanoma
[13] = test system: SF-268 CNS
[14] = test system: SF-295 CNS
[15] = test system: MDA-MB-231 breast
[16] = test system: OVCAR-3 ovarian
[17] = test system: HS 578T breast
[18] = test system: HT29 colon
[19] = test system: CAKI-1 renal
[20] = test system: UO-31 renal
[21] = test system: PC-3 prostate
[22] = test system: SR leukemia
[23] = test system: DU-145 prostate
[24] = test system: OVCAR-5 ovarian
[25] = test system: LOX IMVI melanoma
[26] = test system: MCF7 breast
[27] = test system: BT-549 breast
[28] = test system: T-47D breast
[29] = test system: NCI-H23 lung
[30] = test system: TK-10 renal
[31] = test system: HOP-62 NSCLC
[32] = test system: HCT-116 colon
[33] = test system: NCI-H226 lung
[34] = test system: NCI-H460 lung
[35] = test system: MDA-MB-435
[36] = test system: A549 NSCLC
[37] = test system: KM12 colon
[38] = test system: SK-MEL-28 melanoma
[39] = test system: MALME-3M melanoma
[40] = test system: MOLT-4 leukemia
[41] = test system: RPMI-8226 leukemia
[42] = test system: IGROV1 ovarian
[43] = test system: MDA-N
[44] = test system: RXF 393 renal
[45] = test system: NCI-H522 lung
[46] = test system: SW-620 colon
[47] = test system: COLO 205 colon
[48] = test system: OVCAR-8 ovarian
[49] = test system: ACHN renal
[50] = test system: CCRF-CEM leukemia
[51] = test system: SNB-19 CNS
[52] = test system: EKVX NSCLC
[53] = test system: 786-0 renal
[54] = test system: HOP-92 NSCLC
[55] = test system: OVCAR-4 ovarian
[56] = test system: SK-OV-3 ovarian
[57] = test system: A498 renal
[58] = test system: SK-MEL-2 melanoma
[59] = test system: M14 melanoma

COC1=C2C[C@](OC)(C#CC=CC#CC2O)CC1(C)C (stereo not given in full)
TGI [1]: > 100 µM
TGI [2]: > 100 µM
TGI [3]: > 100 µM
TGI [4]: > 100 µM
TGI [5]: > 100000 nM
TGI [6]: > 100 µM
TGI [7]: > 100 µM
TGI [8]: > 100 µM
TGI [9]: > 100 µM
TGI [10]: > 100 µM
TGI [11]: > 100 µM
TGI [12]: > 100 µM
TGI [13]: > 100 µM
TGI [14]: > 100 µM
TGI [15]: > 100 µM
TGI [16]: > 100 µM
TGI [17]: > 100 µM
TGI [18]: > 100 µM
TGI [19]: > 100 µM
TGI [20]: 80.3 µM
TGI [21]: > 100 µM
TGI [22]: > 100 µM
TGI [23]: > 100 µM
TGI [24]: > 100 µM
TGI [25]: > 100 µM
TGI [26]: > 100 µM
TGI [27]: > 100 µM
TGI [28]: > 100 µM
TGI [29]: > 100 µM
TGI [30]: > 100 µM
TGI [31]: > 100 µM
TGI [32]: > 100 µM
TGI [33]: > 100 µM
TGI [34]: > 100 µM
TGI [35]: > 100 µM
TGI [36]: > 100 µM
TGI [37]: > 100 µM
TGI [38]: > 100 µM
TGI [39]: > 100 µM
TGI [40]: > 100 µM
TGI [41]: > 100 µM
TGI [42]: 63.2 µM
TGI [43]: > 100 µM
TGI [44]: > 100 µM
TGI [45]: > 100 µM
TGI [46]: > 100 µM
TGI [47]: > 100 µM
TGI [48]: > 100 µM
TGI [49]: > 100 µM
TGI [50]: > 100 µM
TGI [51]: > 100 µM
TGI [52]: > 100 µM
TGI [53]: > 100 µM

COc1ccc(/C=C2/C(=O)C(c3ccccc3)N(c3ccccc3)C2=O)cc1OC (stereo not given)
TGI [1]: > 10 µM
TGI [3]: > 10 µM
TGI [4]: > 10 µM
TGI [5]: 307 nM
TGI [6]: > 10 µM
TGI [7]: > 10 µM
TGI [8]: > 10 µM
TGI [54]: > 10 µM
TGI [10]: > 10 µM
TGI [11]: > 10 µM
TGI [12]: > 10 µM
TGI [13]: > 10 µM
TGI [14]: > 10 µM
TGI [15]: > 10 µM
TGI [16]: > 10 µM
TGI [17]: > 10 µM
TGI [18]: > 10 µM
TGI [19]: > 10 µM
TGI [20]: > 10 µM
TGI [21]: > 10 µM
TGI [22]: > 10 µM
TGI [23]: > 10 µM
TGI [24]: > 10 µM
TGI [55]: > 10 µM
TGI [25]: > 10 µM
TGI [26]: > 10 µM
TGI [56]: > 10 µM
TGI [27]: > 10 µM
TGI [57]: 2750 nM
TGI [28]: > 10 µM
TGI [29]: > 10 µM
TGI [30]: > 10 µM
TGI [58]: > 10 µM
TGI [31]: > 10 µM
TGI [32]: > 10 µM
TGI [33]: > 10 µM
TGI [34]: > 10 µM
TGI [35]: > 10 µM
TGI [36]: > 10 µM
TGI [37]: > 10 µM
TGI [38]: > 10 µM
TGI [39]: > 10 µM
TGI [40]: > 10 µM
TGI [41]: > 10 µM
TGI [42]: 2.28 µM
TGI [59]: > 10 µM
TGI [43]: > 10 µM
TGI [44]: > 10 µM
TGI [45]: > 10 µM
TGI [46]: > 10 µM
TGI [47]: > 10 µM
TGI [48]: > 10 µM
TGI [49]: > 10 µM
TGI [50]: > 10 µM
TGI [51]: > 10 µM
TGI [52]: > 10 µM
TGI [53]: > 10 µM
